Assay results reported in patent publication US20080210128A1, “Optical Layer including mu-oxo-bridged boron-subphthalocyanine dimer” (ORIENT CHEMICAL INDUSTRIES, LTD., priority 2007, published 2008).
Values after ≈ are worked out from the molar mass of the structure shown. Like-named read-outs stand apart in the source and are kept apart here.

Assays:
[1] = Absorption spectrum in chloroform (spectral photometer UV-1700); assay type: physicochemical
[2] = Solubility in methyl ethyl ketone
Description: Incidentally, a spectral photometer of UV-1700 available from Shimadzu Corporation was used.

[3] = Dissolution of colorant on preparing the coating agent; assay type: physicochemical; conditions: 0.5 parts by weight colorant in methyl ethyl ketone / cyclohexanone with polymethacrylate
Procedure: 0.1 parts by weight of the Compound obtained in the Manufacturing Example 1 and 15 parts by weigh of polymethacrylate were mixed and dissolved into 50 parts by weight of methyl ethyl ketone and 35 parts by weight of cyclohexanone by stirring, and liquid coating agent was prepared.
In Comparative Example 2, a thin layer was prepared by the same procedures as Example 1 except for using a coating agent prepared by using Intermediate Compound A-1 obtained in Manufacturing Example 1 instead of using Compound 1 used in Example 1. Incidentally, the additive amount of colorant to prepare a coating agent was changed to 0.5 parts by weight. […] Therefore, a coating agent was obtained as dispersion.

Row | Compound | maximum absorption wavelength [1] [nm] | molar absorption coefficient [1] [dm^3mol^−1cm^−1] | Solubility ([2]; solvent: methyl ethyl ketone) [g/L] | Solubility [2] [g/L] | dissolution in coating agent [3]
1 | c1ccc2c(c1)C1=Nc3c4ccccc4c4n3[B-]3(O[B-]56n7c8c9ccccc9c7N=c7c9ccccc9c(n75)=NC5=[N+]6C(=N8)c6ccccc65)n5c(c6ccccc6c5=N4)=NC2=[N+]13 (stereo not drawn) [Compound 1, (SubPcB)2O] | 532 | 106000 | 1.14 (≈ 1410 µM) |  | 
2 | ClB1n2c3c4ccccc4c2N=c2c4ccccc4c(n21)=NC1=NC(=N3)c2ccccc21 [Intermediate Compound A-1, SubPcBCl, reference compound] | 565 | 51000 |  | 0.025 (≈ 58 µM) | did not dissolve completely
3 | (t-Bu3SubPcB)2O [Compound 2] | 543 | 61000 | 58.5 |  | 
4 | SubPcBOH [Intermediate Compound B-1, reference compound] | 562 | 45000 |  |  | 
5 | {(C8H17O)3SubPcB}2O [Compound 3] | 543 | 87000 |  | 83.2 | 
